From PubChem BioAssay (NCI)
Several values for one entry are separate records, joined by “and”; a condition that tells them apart may be missing. Equal values may be shown once.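 Tested at 5 concentrations; 48 h exposure; 96-well plates; endpoints linearly interpolated, else capped at highest concentration. Here, GI50 denotes the concentration required for 50% inhibition of growth. TGI denotes the concentration required for complete inhibition of growth.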

What was measured:
Test in all cases: NCI-60 cell line screen, 48 h
BT-549 breast = system: BT-549 breast
EKVX NSCLC = system: EKVX NSCLC
HOP-92 NSCLC = system: HOP-92 NSCLC
HT29 colon = system: HT29 colon
M14 melanoma = system: M14 melanoma
MCF7 breast = system: MCF7 breast
MDA-MB-435 = system: MDA-MB-435
SK-MEL-2 melanoma = system: SK-MEL-2 melanoma
SK-MEL-5 melanoma = system: SK-MEL-5 melanoma
SNB-19 CNS = system: SNB-19 CNS

SMILES	TGI (BT-549 breast)	TGI (EKVX NSCLC)	TGI (HOP-92 NSCLC)	TGI (HT29 colon)	TGI (M14 melanoma)	TGI (MCF7 breast)	TGI (MDA-MB-435)	TGI (SK-MEL-2 melanoma)	TGI (SK-MEL-5 melanoma)	TGI (SNB-19 CNS)	GI50 (EKVX NSCLC)	GI50 (HOP-92 NSCLC)	GI50 (MDA-MB-435)	GI50 (SK-MEL-2 melanoma)	GI50 (BT-549 breast)	GI50 (HT29 colon)	GI50 (M14 melanoma)	GI50 (MCF7 breast)	GI50 (SNB-19 CNS)
O=c1cc(NNc2cccc3ccccc23)[nH]c(=O)[nH]1	30.2 µM	27.7 µM	31.7 µM	31.9 µM	29.8 µM	4.74 µM	30.7 µM	28.4 µM	29.7 µM	29 µM									
CCCOC(=O)c1cc(O)c(O)c(O)c1	> 100 µM	> 100 µM	> 100 µM	> 100 µM	> 100 µM	> 100 µM	81.1 µM	> 100 µM	> 100 µM	> 100 µM									
Cc1ccc(C)c2c1C1CCCCC3(OCCCO3)C21O (stereo unspecified)				> 100 µM	> 100 µM			> 100 µM	> 100 µM	> 100 µM									
CNC(=S)N/N=C/C(C)=N/NC(=S)NC		> 100 µM			> 100 µM			> 100 µM	> 100 µM	> 100 µM									
Cc1ccc(S(=O)(=O)N/N=C2\C=CC3(CC2)C(=O)N(I)c2ccccc23)cc1 (stereo unspecified)		> 100 µM	> 100 µM	> 100 µM	> 100 µM		> 100 µM	> 100 µM	> 100 µM	> 100 µM									
Cc1ccc(S(=O)(=O)OC[C@@]2(C)CC[C@]3(C)CC[C@]4(C)C(=C3C2)C=C[C@@H]2[C@@]3(C)CCCNC(C)(C)[C@@H]3CC[C@]24C)cc1		3.29 µM	2.97 µM				3.07 µM	3.52 µM			1.7 µM	1.45 µM	1.64 µM	1.88 µM					
COc1cccc(NC(=O)CC(=O)NN)c1	> 100 µM	> 100 µM	> 100 µM	> 100 µM		> 100 µM	> 100 µM	> 100 µM	> 100 µM	> 100 µM									
COC1OC2COC(=O)c3cc(O)c(O)c(O)c3-c3c(cc(O)c(O)c3O)C(=O)OC2C(O)C1O (stereo unspecified)	> 100 µM	> 100 µM		> 100 µM	> 100 µM	> 100 µM	94.8 µM	> 100 µM	> 100 µM	> 100 µM									
NC(Cc1ccccc1)C(=O)OCN1C(=O)C2C3C=CC(C2C1=O)C1C(=O)N(COC(=O)C(N)Cc2ccccc2)C(=O)C31 (stereo unspecified)	> 100 µM	> 100 µM		39.7 µM	> 100 µM	39.2 µM	> 100 µM	52 µM	> 100 µM	> 100 µM									
COC(=O)CN1CCN(c2cccc3c2CCCC3)CC1		> 100 µM	15.4 µM	65.8 µM	> 100 µM	94.3 µM	> 100 µM	> 100 µM	60 µM	> 100 µM									
S=C(NCc1ccccn1)N/N=C/c1ccccn1		2.44 µM		> 100 µM	> 100 µM	> 100 µM	> 100 µM	0.876 µM	1.5 µM	28.6 µM									
CC1(C)N=C(C(N)=O)c2[nH]cnc2N1		> 100 µM	> 100 µM	> 100 µM	> 100 µM	> 100 µM	> 100 µM	> 100 µM	> 100 µM	> 100 µM									
Nc1nc(Cl)c2ncn(CCCC(c3ccccc3)P(=O)(O)O)c2n1 (stereo unspecified)			> 100 µM	> 100 µM	> 100 µM			> 100 µM	> 100 µM	> 100 µM									
CC(=O)Oc1ccc2cc(Oc3cc(Cl)c(Cl)cc3Cl)c(=O)oc2c1	26.7 µM	71.9 µM	48 µM	30.5 µM	35.2 µM	67.7 µM			24.1 µM	81.2 µM									
C[N+](C)(CCNc1ccc(NCC[N+](C)(C)Cc2ccc([N+](=O)[O-])cc2)c2c1C(=O)c1c(O)ccc(O)c1C2=O)Cc1ccc([N+](=O)[O-])cc1	> 50 µM	> 50 µM		> 50 µM	> 50 µM		> 50 µM	> 50 µM	> 50 µM										
CN(C)C(=O)C(F)(F)C(c1ccccc1)C1C(=O)N(C)C(=O)N(C)C1=O (stereo unspecified)	> 100 µM	> 100 µM	> 100 µM		> 100 µM	> 100 µM	> 100 µM	> 100 µM	> 100 µM	> 100 µM									
CCCC(=O)Nc1cc(C(=O)N2C[C@H]3C[C@@]34C2=CC(=O)c2[nH]cc(C)c24)n(COC)c1		3.37 µM and 2.29 µM	2.64 µM and 0.728 µM	4.47 µM and 20.5 µM		6.32 µM and 0.661 µM	1.6 µM and 0.537 µM			29.1 µM and 13 µM	0.421 µM	0.291 µM		0.13 µM	0.159 µM	0.296 µM	0.167 µM	0.0139 µM	0.326 µM
O=C(C[N+]12CN3CN(CN(C3)C1)C2)c1ccc(-c2ccccc2)cc1	71.7 µM	44.9 µM	> 100 µM	48.4 µM	49.5 µM		> 100 µM	35.2 µM	30.4 µM	57.5 µM									
CCCCCCCCCCCC1N=C(N)N=C(N)N1c1cccc(Br)c1 (stereo unspecified)		2.44 µM	4.34 µM	1.71 µM			1.79 µM	2.99 µM			1.05 µM	1.51 µM	0.523 µM	1.55 µM		0.412 µM			
CCOC(=O)Cc1c(C(=O)OCC)[n+](=O)c2cc(Cl)c(Cl)cc2n1[O-]	6.53 µM	11.4 µM		5.2 µM	5.98 µM	13.3 µM	9.03 µM	7.73 µM	3.04 µM	11.9 µM									
Nc1nc(Cl)c(CO)c(NCC2(CO)CCC2)n1	> 100 µM	> 100 µM	> 100 µM	> 100 µM		> 100 µM	> 100 µM		> 100 µM	> 100 µM									
CC(C)(C)OC(=O)Cn1ncn(NC(=O)Cc2ccccc2)c1=S	> 10 µM	> 10 µM	> 10 µM	> 10 µM	> 10 µM	> 10 µM	> 10 µM		> 10 µM	> 10 µM									
c1ccc(C(Oc2noc3ccccc23)c2ccccc2)cc1	96.4 µM	> 100 µM	> 100 µM	> 100 µM	63.5 µM	> 100 µM	75.4 µM		39.6 µM	> 100 µM									
O=CN1CCN(c2ccc3ccc(=O)[nH]c3n2)CC1	> 100 µM	> 100 µM	> 100 µM	> 100 µM	> 100 µM	> 100 µM	> 100 µM	> 100 µM		> 100 µM									
